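Each compound was tested at five concentrations against cells in 96-well plates for 48 hours. GI50 marks 50% less growth.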 Calls of active or inactive are those of the source. No stated cut-off is given here; in the data, active = GI50 up to about 1.1 µM and inactive = higher.
Key:
Test in all cases: NCI anticancer screen, dose series, 48 h
[1] = test system: A549
[2] = test system: ACHN
[3] = test system: CCRF-CEM
[4] = test system: DLD-1
[5] = test system: EKVX
[6] = test system: HCC 2998
[7] = test system: HCT-15
[8] = test system: HL-60
[9] = test system: HOP-62
[10] = test system: HOP-92
[11] = test system: HT-29
[12] = test system: IGROV-1
[13] = test system: K562
[14] = test system: KM-20L2
[15] = test system: KM12
[16] = test system: LOX IMVI
[17] = test system: LXFL 529
[18] = test system: M14
[19] = test system: M19-MEL
[20] = test system: MOLT-4
[21] = test system: Malme-3M
[22] = test system: NCI-H23
[23] = test system: NCI-H460
[24] = test system: NCI-H522
[25] = test system: OVCAR-3
[26] = test system: OVCAR-4
[27] = test system: OVCAR-5
[28] = test system: OVCAR-8
[29] = test system: RXF 393
[30] = test system: SF-295
[31] = test system: SF-539
[32] = test system: SK-MEL-28
[33] = test system: SK-MEL-2
[34] = test system: SK-MEL-5
[35] = test system: SK-OV-3
[36] = test system: SN12C
[37] = test system: SNB-75
[38] = test system: SNB-78
[39] = test system: SR
[40] = test system: SW-620
[41] = test system: TK-10
[42] = test system: U-251
[43] = test system: UACC-257
[44] = test system: UACC-62
[45] = test system: UO-31
[46] = test system: XF498
[47] = test system: 786-0
[48] = test system: A498
[49] = test system: CAKI-1
[50] = test system: COLO 205
[51] = test system: DMS-114
[52] = test system: DMS-273
[53] = test system: HCT-116
[54] = test system: NCI-H226
[55] = test system: RPMI-8226
[56] = test system: SF-268
[57] = test system: SNB-19

CC1OC=CC(=O)C1O (configuration not stated)
GI50 [1]: > 100 µM (inactive) | GI50 [2]: > 100 µM (inactive) | GI50 [3]: 69.7 µM (inactive) | GI50 [4]: > 100 µM (inactive) | GI50 [5]: > 100 µM (inactive) | GI50 [6]: > 100 µM (inactive) | GI50 [7]: > 100 µM | GI50 [8]: > 100 µM (inactive) | GI50 [9]: > 100 µM (inactive) | GI50 [10]: > 100 µM (inactive) | GI50 [11]: > 100 µM (inactive) | GI50 [12]: > 100 µM (inactive) | GI50 [13]: > 100 µM (inactive) | GI50 [14]: > 100 µM (inactive) | GI50 [15]: > 100 µM (inactive) | GI50 [16]: > 100 µM (inactive) | GI50 [17]: > 100 µM (inactive) | GI50 [18]: > 100 µM (inactive) | GI50 [19]: > 100 µM (inactive) | GI50 [20]: > 100 µM (inactive) | GI50 [21]: > 100 µM (inactive) | GI50 [22]: > 100 µM (inactive) | GI50 [23]: > 100 µM (inactive) | GI50 [24]: 50.4 µM (inactive) | GI50 [25]: > 100 µM (inactive) | GI50 [26]: > 100 µM (inactive) | GI50 [27]: > 100 µM (inactive) | GI50 [28]: > 100 µM (inactive) | GI50 [29]: > 100 µM (inactive) | GI50 [30]: > 100 µM (inactive) | GI50 [31]: > 100 µM (inactive) | GI50 [32]: > 100 µM (inactive) | GI50 [33]: > 100 µM (inactive) | GI50 [34]: > 100 µM (inactive) | GI50 [35]: > 100 µM (inactive) | GI50 [36]: > 100 µM (inactive) | GI50 [37]: > 100 µM (inactive) | GI50 [38]: > 100 µM (inactive) | GI50 [39]: > 100 µM (inactive) | GI50 [40]: > 100 µM (inactive) | GI50 [41]: > 100 µM (inactive) | GI50 [42]: > 100 µM (inactive) | GI50 [43]: > 100 µM (inactive) | GI50 [44]: > 100 µM (inactive) | GI50 [45]: > 100 µM (inactive) | GI50 [46]: > 100 µM (inactive)

O=C(O)/C=C/c1ccncc1
GI50 [47]: > 100 µM (inactive) | GI50 [48]: > 100 µM (inactive) | GI50 [2]: > 100 µM (inactive) | GI50 [49]: > 100 µM (inactive) | GI50 [3]: > 100 µM (inactive) | GI50 [50]: > 100 µM (inactive) | GI50 [4]: > 100 µM (inactive) | GI50 [51]: > 100 µM (inactive) | GI50 [52]: > 100 µM (inactive) | GI50 [5]: > 100 µM (inactive) | GI50 [6]: > 100 µM (inactive) | GI50 [53]: > 100 µM (inactive) | GI50 [7]: 14.5 µM | GI50 [8]: > 100 µM (inactive) | GI50 [9]: 0.223 µM (active) | GI50 [10]: > 100 µM (inactive) | GI50 [11]: > 100 µM (inactive) | GI50 [12]: > 100 µM (inactive) | GI50 [13]: > 100 µM (inactive) | GI50 [14]: > 100 µM (inactive) | GI50 [15]: > 100 µM (inactive) | GI50 [16]: > 100 µM (inactive) | GI50 [17]: > 100 µM (inactive) | GI50 [18]: > 100 µM (inactive) | GI50 [19]: > 100 µM (inactive) | GI50 [20]: > 100 µM (inactive) | GI50 [21]: > 100 µM (inactive) | GI50 [54]: > 100 µM (inactive) | GI50 [22]: > 100 µM (inactive) | GI50 [23]: > 100 µM (inactive) | GI50 [24]: > 100 µM (inactive) | GI50 [25]: > 100 µM (inactive) | GI50 [26]: > 100 µM (inactive) | GI50 [27]: > 100 µM (inactive) | GI50 [28]: > 100 µM (inactive) | GI50 [55]: > 100 µM (inactive) | GI50 [29]: > 100 µM (inactive) | GI50 [56]: > 100 µM (inactive) | GI50 [30]: > 100 µM (inactive) | GI50 [31]: > 100 µM (inactive) | GI50 [32]: > 100 µM (inactive) | GI50 [33]: > 100 µM (inactive) | GI50 [34]: > 100 µM (inactive) | GI50 [35]: > 100 µM (inactive) | GI50 [36]: > 100 µM (inactive) | GI50 [57]: > 100 µM (inactive) | GI50 [37]: > 100 µM (inactive) | GI50 [38]: > 100 µM (inactive) | GI50 [39]: > 100 µM (inactive) | GI50 [40]: > 100 µM (inactive) | GI50 [41]: > 100 µM (inactive) | GI50 [42]: 0.173 µM (active) | GI50 [43]: > 100 µM (inactive) | GI50 [44]: > 100 µM (inactive) | GI50 [45]: > 100 µM (inactive) | GI50 [46]: > 100 µM (inactive)

Reference: ChEMBL document CHEMBL1201862, “PubChem BioAssay data set” (2004)
